From ChEMBL document CHEMBL4665661, “Design, synthesis, and biological activity evaluation of (-)-6-O-desmethylantofine analogues as potent anti-cancer agents” (Bioorg Med Chem, 2019)

Tests used:
HL-60 = assay: Antiproliferative activity against human HL-60 cells after 72 hrs by MTT assay; type: functional, cell-based; conditions: HL-60, 72 h
Bel-7402 = assay: Antiproliferative activity against human Bel-7402 cells after 72 hrs by SRB assay; type: functional, cell-based; conditions: Bel-7402, 72 h

Compound: COc1cc2c3c(c4ccc(OCCOC(=O)[C@@H](N)C(C)C)cc4c2cc1OC)CN1CCC[C@H]1C3
- IC50 (HL-60): 7800 nM
- IC50 (Bel-7402): > 10000 nM

Compound: COc1cc2c3c(c4ccc(OCCOC(=O)[C@H](C)N)cc4c2cc1OC)CN1CCC[C@@H]1C3
- IC50 (HL-60): 494 nM
- IC50 (Bel-7402): 642 nM

Compound: COc1cc2c3c(c4ccc(OC(=O)N(C)C)cc4c2cc1OC)CN1CCC[C@H]1C3
- IC50 (HL-60): > 10000 nM
- IC50 (Bel-7402): > 10000 nM

Compound: CC[C@H](C)[C@H](N)C(=O)OCCOc1ccc2c3c(c4cc(OC)c(OC)cc4c2c1)C[C@H]1CCCN1C3
- IC50 (HL-60): 505 nM
- IC50 (Bel-7402): 584 nM

Compound: COc1cc2c3c(c4ccc(OCCOC(=O)[C@@H](N)Cc5ccccc5)cc4c2cc1OC)CN1CCC[C@@H]1C3
- IC50 (HL-60): 568 nM
- IC50 (Bel-7402): 669 nM

Compound: COc1cc2c3c(c4ccc(OCCOC(=O)[C@@H](N)Cc5ccccc5)cc4c2cc1OC)CN1CCC[C@H]1C3
- IC50 (HL-60): 600 nM
- IC50 (Bel-7402): 2280 nM

Compound: COc1cc2c3c(c4ccc(OCCO)cc4c2cc1OC)CN1CCC[C@@H]1C3
- IC50 (HL-60): 81 nM
- IC50 (Bel-7402): 98 nM

Compound: CCOC(=O)Oc1ccc2c3c(c4cc(OC)c(OC)cc4c2c1)C[C@H]1CCCN1C3
- IC50 (HL-60): 66 nM
- IC50 (Bel-7402): 105 nM

Compound: COc1cc2c3c(c4ccc(OC(=O)c5ccccc5)cc4c2cc1OC)CN1CCC[C@@H]1C3
- IC50 (HL-60): 455 nM
- IC50 (Bel-7402): 428 nM

Compound: COc1cc2c3c(c4ccc(O)cc4c2cc1OC)CN1CCC[C@H]1C3
- IC50 (HL-60): 50 nM
- IC50 (Bel-7402): 292 nM

Compound: COc1cc2c3c(c4ccc(OC(=O)C(C)C)cc4c2cc1OC)CN1CCC[C@@H]1C3
- IC50 (HL-60): 106 nM
- IC50 (Bel-7402): 60 nM

Compound: COc1cc2c3c(c4ccc(OC(=O)C(C)(C)C)cc4c2cc1OC)CN1CCC[C@@H]1C3
- IC50 (HL-60): 245 nM
- IC50 (Bel-7402): 294 nM

Compound: CCOC(=O)Oc1ccc2c3c(c4cc(OC)c(OC)cc4c2c1)C[C@@H]1CCCN1C3
- IC50 (HL-60): 379 nM
- IC50 (Bel-7402): 2080 nM

Compound: COc1cc2c3c(c4ccc(OC(=O)C(C)(C)C)cc4c2cc1OC)CN1CCC[C@H]1C3
- IC50 (HL-60): 219 nM
- IC50 (Bel-7402): 1540 nM

Compound: COc1cc2c3c(c4ccc(OC(=O)c5cccnc5)cc4c2cc1OC)CN1CCC[C@@H]1C3
- IC50 (HL-60): 179 nM
- IC50 (Bel-7402): 133 nM

Compound: COc1cc2c3c(c4ccc(OC(=O)C5CC5)cc4c2cc1OC)CN1CCC[C@@H]1C3
- IC50 (HL-60): 181 nM
- IC50 (Bel-7402): 765 nM

Compound: COc1cc2c3c(c4ccc(OCC#N)cc4c2cc1OC)CN1CCC[C@H]1C3
- IC50 (HL-60): 301 nM
- IC50 (Bel-7402): 200 nM

Compound: COc1cc2c3c(c4ccc(OCCOC(=O)[C@@H](N)Cc5c[nH]c6ccccc56)cc4c2cc1OC)CN1CCC[C@@H]1C3
- IC50 (HL-60): 112 nM
- IC50 (Bel-7402): 248 nM

Compound: COc1cc2c3c(c4ccc(OC(=O)c5ccco5)cc4c2cc1OC)CN1CCC[C@@H]1C3
- IC50 (HL-60): 178 nM
- IC50 (Bel-7402): 504 nM

Compound: COc1cc2c3c(c4ccc(OC(=O)N(C)C)cc4c2cc1OC)CN1CCC[C@@H]1C3
- IC50 (HL-60): 2830 nM
- IC50 (Bel-7402): 8260 nM

Compound: COc1cc2c3c(c4ccc(OCCOC(=O)[C@H](C)N)cc4c2cc1OC)CN1CCC[C@H]1C3
- IC50 (HL-60): 1080 nM
- IC50 (Bel-7402): 2830 nM

Compound: COc1cc2c3c(c4ccc(OC(=O)c5cccs5)cc4c2cc1OC)CN1CCC[C@@H]1C3
- IC50 (HL-60): 472 nM
- IC50 (Bel-7402): 83 nM

Compound: COc1cc2c3c(c4ccc(OC(=O)/C=C/C=C/c5ccc6c(c5)OCO6)cc4c2cc1OC)CN1CCC[C@@H]1C3
- IC50 (HL-60): 56 nM
- IC50 (Bel-7402): 199 nM

Compound: COc1cc2c3c(c4ccc(OC(=O)c5ccccc5)cc4c2cc1OC)CN1CCC[C@H]1C3
- IC50 (HL-60): 800 nM
- IC50 (Bel-7402): 1090 nM

Compound: COc1cc2c3c(c4ccc(OCCO)cc4c2cc1OC)CN1CCC[C@H]1C3
- IC50 (HL-60): 220 nM
- IC50 (Bel-7402): 374 nM

Compound: COc1cc2c3c(c4ccc(OC(=O)c5cccc6nnsc56)cc4c2cc1OC)CN1CCC[C@@H]1C3
- IC50 (HL-60): 227 nM
- IC50 (Bel-7402): 173 nM

Compound: COc1cc2c3c(c4ccc(OCCOC(=O)[C@@H](N)CC(C)C)cc4c2cc1OC)CN1CCC[C@@H]1C3
- IC50 (HL-60): 580 nM
- IC50 (Bel-7402): 1270 nM

Compound: COc1cc2c3c(c4ccc(O)cc4c2cc1OC)CN1CCC[C@@H]1C3
- IC50 (HL-60): 4 nM
- IC50 (Bel-7402): 26 nM

Compound: COc1cc2c3c(c4ccc(OCCOC(=O)[C@@H]5CCCN5)cc4c2cc1OC)CN1CCC[C@@H]1C3
- IC50 (HL-60): 233 nM
- IC50 (Bel-7402): 280 nM

Compound: COc1cc2c3c(c4ccc(OC(=O)C5CC5)cc4c2cc1OC)CN1CCC[C@H]1C3
- IC50 (HL-60): 611 nM
- IC50 (Bel-7402): 877 nM

Compound: COc1cc2c3c(c4ccc(OC(C)=O)cc4c2cc1OC)CN1CCC[C@@H]1C3
- IC50 (HL-60): 44 nM
- IC50 (Bel-7402): 228 nM

Compound: COc1cc2c3c(c4ccc(OC(=O)c5cccnc5)cc4c2cc1OC)CN1CCC[C@H]1C3
- IC50 (HL-60): 762 nM
- IC50 (Bel-7402): 1770 nM

Compound: COc1cc2c3c(c4ccc(OC(=O)C(C)C)cc4c2cc1OC)CN1CCC[C@H]1C3
- IC50 (HL-60): 683 nM
- IC50 (Bel-7402): 1590 nM

Compound: COc1cc2c3c(c4ccc(OC(=O)C5CCCCC5)cc4c2cc1OC)CN1CCC[C@@H]1C3
- IC50 (HL-60): 674 nM
- IC50 (Bel-7402): 235 nM

Compound: COc1cc2c3c(c4ccc(OCCOC(=O)[C@@H](N)C(C)C)cc4c2cc1OC)CN1CCC[C@@H]1C3
- IC50 (HL-60): 908 nM
- IC50 (Bel-7402): 974 nM

Compound: COc1cc2c3c(c4ccc(OC(C)=O)cc4c2cc1OC)CN1CCC[C@H]1C3
- IC50 (HL-60): 756 nM
- IC50 (Bel-7402): 1110 nM

Compound: COc1cc2c3c(c4ccc(OC(=O)c5ccccc5N)cc4c2cc1OC)CN1CCC[C@@H]1C3
- IC50 (HL-60): 25 nM
- IC50 (Bel-7402): 83 nM

Compound: COc1cc2c3c(c4ccc(OC(=O)/C=C/c5ccc6c(c5)OCO6)cc4c2cc1OC)CN1CCC[C@@H]1C3
- IC50 (HL-60): 153 nM
- IC50 (Bel-7402): 185 nM
